# Entries after “also recorded” stand apart in the source; their conditions may differ. Read-outs that look alike come from different tables or passages of the source. Where a SMILES comes first, the peptide text is derived from it.
# Columns and labels:
# [1] = test system: P. capsici; assay: Resazurin cell viability assay; type: cell-based, Phytophthora capsici
# [2] = test system: Botrytis cinerea; assay: Detached lettuce leaf infection assay (in planta antifungal activity); type: in vivo; settings: detached iceberg lettuce leaves, peptide 3, 6, and 12 μM drop inoculated, 48 hours
# [3] = test system: Botrytis cinerea; settings: for antifungal activity compared with the antifungal activity of NCR2 monomer: against B. cinerea
# [4] = test system: Phytophthora capsici LT263
# [5] = Protein-phospholipid overlay assay (PIP Strips); settings: protein-lipid overlay, 1 μg/ml peptide, 100 pmol lipid per spot
# Experimental: (§2) Briefly, lipid strips were blocked with 10 mL of blocking buffer, PBS-T/3% fat free BSA for 12-16 h at 4° C. with gentle agitation. […] After hybridization, protein solution was discarded and the strips were then washed with PBS-T three times with gentle agitation for 20 minutes each for 1 hour at room temperature. […] The lipid strips were washed with PBS-T two times with gentle agitation, for 15 minutes each wash, at room temperature. HRP-conjugated Mouse Anti-Rabbit IgG secondary antibody (GenScript Cat no A01827) diluted 1:4000 in blocking buffer was added to the lipid strips and incubated for 60 minutes at 4° C. After two washes with PBS-T, chemiluminescence was detected using SuperSignal® West Pico PLUS Sensitivity substrate kit (Thermo Scientific, Cat no: 34080 following the manufacturer's protocol.
# [6] = Protein-phospholipid overlay assay (PIP Strips); settings: protein-lipid overlay, 1 μg/ml peptide, 100 pmol lipid per spot; remark: listed apart in the source
# Experimental: as §2
# [7] = Protein-phospholipid overlay assay (PIP Strips); settings: protein-lipid overlay, 1 μg/ml peptide, 100 pmol lipid per spot; remark: listed apart in the source
# Experimental: as §2
# [8] = Protein-phospholipid overlay assay (PIP Strips); settings: protein-lipid overlay, 1 μg/ml peptide, 100 pmol lipid per spot; remark: listed apart in the source
# Experimental: as §2
# [9] = Protein-phospholipid overlay assay (PIP Strips); settings: protein-lipid overlay, 1 μg/ml peptide, 100 pmol lipid per spot; remark: listed apart in the source
# Experimental: as §2
# [10] = Protein-phospholipid overlay assay (PIP Strips); settings: protein-lipid overlay, 1 μg/ml peptide, 100 pmol lipid per spot; remark: listed apart in the source
# Experimental: as §2
# [11] = Protein-phospholipid overlay assay (PIP Strips); settings: protein-lipid overlay, 1 μg/ml peptide, 100 pmol lipid per spot; remark: listed apart in the source
# Experimental: as §2
# [12] = Protein-phospholipid overlay assay (PIP Strips); settings: protein-lipid overlay, 1 μg/ml peptide, 100 pmol lipid per spot; remark: listed apart in the source
# Experimental: as §2
# [13] = Protein-phospholipid overlay assay (PIP Strips), overall; settings: protein-lipid overlay, 1 μg/ml peptide, 100 pmol lipid per spot
# Experimental: as §2
# [14] = test system: Fusarium graminearum PH-1; type: cell-based; settings: F. graminearum, absorbance at 595 nm at 48 hours
# [15] = test system: F. graminearum; type: cell-based, Fusarium graminearum
# [16] = test system: F. virguliforme; assay: Resazurin cell viability assay; type: cell-based, Fusarium virguliforme
# Experimental: (§1) The antifungal and anti-oomycete activity was conducted as described previously (Spelbrink et al. 2004; Sagaram et al. 2011; Velivelli et al. 2018) with minor modifications. The antifungal and anti-oomycete activity of NCR peptides were determined in an in vitro assay using 96-well microtiter plates. Fifty microliters of each protein dilution (0, 0.1, 0.3, 0.7, 1.5, 3 and 6 μM) was added to each well of the microtiter plate containing 50 μL of (zoo)spore suspension prepared in 2×SFM at a final concentration of 10^5 (zoo)spores/ml. The plates were incubated at room temperature and the quantitative fungal growth inhibition was estimated by measuring the absorbance at 595 nm using a Tecan Infinite M200 Pro (Tecan Systems Inc., San Jose, CA) microplate reader at 48 hours. The fungal/oomycete cell viability/cell killing was determined by the resazurin cell viability assay. After incubation at 48 hours, 10 μl of 0.1% resazurin solution was added to each well and re-incubated overnight. A change from blue to pink color indicates reduction of resazurin and cell viability.
# [17] = test system: F. oxysporum; assay: Resazurin cell viability assay; type: cell-based, Fusarium oxysporum
# Experimental: as §1
# [18] = test system: F. virguliforme
# [19] = test system: F. oxysporum
# [20] = test system: Fusarium species; type: cell-based, Fusarium sp.; settings: against F. oxysporum, F. graminearum and F. virguliforme
# [21] = B. cinerea, absorbance at 595 nm at 48 hours
# [22] = P. capsici zoospores, absorbance at 595 nm at 48 hours
Molecule,concentration of cell death (resazurin assay) [1] [µM],size of disease lesions caused by Botrytis cinerea [2],IC50 ([3]; 48 h) [nM],MIC ([3]; 48 h) [µM],IC50 ([4]; 48 h) [nM],MIC ([4]; 48 h) [µM],binding to PI(3)P [5],binding to PI(4)P [6],binding to PI(5)P [7],"binding to PI(3,4)P2 [8]","binding to PI(3,5)P2 [9]","binding to PI(4,5)P2 [10]","binding to PI(3,4,5)P3 [11]",binding to phosphatidic acid (PA) [12],binding to phospholipids (overall) [13],IC50 [14] [nM],MIC [14] [µM],increase in the antifungal activity of dimer compared with the monomer [20],"IC50 [3, 21] [nM]","MIC [3, 21] [µM]",further results
CC[C@H](C)[C@H](NC(=O)[C@H](CCCNC(=N)N)NC(=O)[C@H](CCCNC(=N)N)NC(=O)[C@H](CCCNC(=N)N)NC(=O)[C@@H](NC(=O)[C@H](CS)NC(=O)[C@H](Cc1ccc(O)cc1)NC(=O)CNC(=O)[C@H](CCCCN)NC(=O)[C@H](CCCNC(=N)N)NC(=O)[C@H](CS)NC(=O)[C@H](CCCNC(=N)N)NC(=O)[C@H](C)NC(=O)[C@H](CCCNC(=N)N)NC(=O)[C@H](Cc1ccc(O)cc1)NC(=O)[C@H](CC(N)=O)NC(=O)[C@H](CCCCN)NC(=O)[C@@H](NC(=O)[C@@H](NC(=O)[C@H](CO)NC(=O)[C@H](CS)NC(=O)[C@@H]1CCCN1C(=O)CNC(=O)[C@H](CCCCN)NC(=O)[C@H](Cc1ccccc1)NC(=O)[C@H](CCCCN)NC(=O)[C@H](Cc1c[nH]cn1)NC(=O)[C@H](CS)NC(=O)[C@@H]1CCCN1C(=O)[C@H](CCCCN)NC(=O)[C@H](CO)NC(=O)[C@H](CC(C)C)NC(=O)[C@H](CCC(N)=O)NC(=O)[C@@H](NC(=O)[C@H](Cc1ccccc1)NC(=O)[C@H](C)N)[C@@H](C)CC)[C@@H](C)CC)C(C)C)C(C)C)C(=O)N[C@@H](CCCNC(=N)N)C(=O)O [NCR2_V1] (H-AFIQLSKPCHKFKGPCSIVKNYRARCRKGYCVRRRIR-OH),3,much smaller lesions; also recorded: effective in reducing the size of disease lesions,1500,2 to 3,2000,3,bound tightly; also recorded: greater affinity than the wild-type NCR2 peptide,bound tightly; also recorded: greater affinity than the wild-type NCR2 peptide,bound tightly; also recorded: greater affinity than the wild-type NCR2 peptide,weakly,weakly,weakly,No binding,weakly,bind to multiple phospholipids,–,–,–,–,–,size of disease lesions caused by Botrytis cinerea ([2]; listed as NCR2 V1): effective in reducing the sizes of disease lesions
CC[C@H](C)[C@H](NC(=O)[C@H](CCCNC(=N)N)NC(=O)[C@H](CCCNC(=N)N)NC(=O)[C@H](CCCNC(=N)N)NC(=O)[C@@H](NC(=O)[C@H](CS)NC(=O)[C@H](Cc1ccc(O)cc1)NC(=O)CNC(=O)[C@H](CCCCN)NC(=O)[C@H](CCCNC(=N)N)NC(=O)[C@H](CS)NC(=O)[C@H](CCCNC(=N)N)NC(=O)[C@H](C)NC(=O)[C@H](CCCNC(=N)N)NC(=O)[C@H](Cc1ccc(O)cc1)NC(=O)[C@H](CC(N)=O)NC(=O)[C@H](CCCCN)NC(=O)[C@@H](NC(=O)[C@@H](NC(=O)[C@H](CO)NC(=O)[C@H](CS)NC(=O)[C@H](CCC(=O)O)NC(=O)[C@H](CCCCN)NC(=O)[C@H](CC(=O)O)NC(=O)[C@H](CO)NC(=O)[C@@H](NC(=O)[C@H](CS)NC(=O)[C@@H]1CCCN1C(=O)[C@H](CCCCN)NC(=O)[C@H](CO)NC(=O)[C@H](CC(C)C)NC(=O)[C@H](CCC(N)=O)NC(=O)[C@@H](NC(=O)[C@H](Cc1ccccc1)NC(=O)[C@H](C)N)[C@@H](C)CC)[C@@H](C)CC)[C@@H](C)CC)C(C)C)C(C)C)C(=O)N[C@@H](CCCNC(=N)N)C(=O)O [NCR2] (H-AFIQLSKPCISDKECSIVKNYRARCRKGYCVRRRIR-OH; N-terminus and C-terminus assumed),3,smaller lesions compared to no peptide control,1500,2 to 3,2000,3,bound weakly,bound weakly,bound weakly,bound weakly,strongly binds,bound weakly,bound weakly,bound weakly,bind to multiple phospholipids,1500 to 2000,–,–,–,–,concentration at which cells were killed (resazurin assay) [15]: 3 µM; concentration at which cells were killed (resazurin assay) [16]: 3 µM; concentration at which cells were killed (resazurin assay) [17]: 1.5 µM; MIC ([18]; 48 h): 3 µM; IC50 ([19]; 48 h): 500 nM
AFIQLSKPCISDKECSIVKNYRARCRKGYCVRRRIRGGKAGKKAPKAFIQLSKPCISDKECSIVKNYRARCRKGYCVRRRIR [NCR2-L2-NCR2],–,–,–,–,–,–,–,–,–,–,–,–,–,–,–,1000,1.5,Two-fold increase,750,1.5,antifungal activity compared with the antifungal activity of NCR2 monomer [3]: significant increase; MIC [18]: 1.5 µM; IC50 [19]: 300 nM; MIC [19]: 0.75 µM
CC[C@H](C)[C@H](NC(=O)[C@H](CCCNC(=N)N)NC(=O)[C@H](CCCNC(=N)N)NC(=O)[C@H](CCCNC(=N)N)NC(=O)[C@@H](NC(=O)[C@H](CS)NC(=O)[C@H](Cc1ccc(O)cc1)NC(=O)CNC(=O)[C@H](CCCCN)NC(=O)[C@H](CCCNC(=N)N)NC(=O)[C@H](CS)NC(=O)[C@H](CCCNC(=N)N)NC(=O)[C@H](C)NC(=O)[C@H](CCCNC(=N)N)NC(=O)[C@H](Cc1ccc(O)cc1)NC(=O)[C@H](CC(N)=O)NC(=O)[C@H](CCCCN)NC(=O)[C@@H](NC(=O)[C@@H](NC(=O)[C@H](CO)NC(=O)[C@H](CS)NC(=O)[C@H](CCC(=O)O)NC(=O)[C@H](CCCCN)NC(=O)[C@H](CC(=O)O)NC(=O)[C@H](CO)NC(=O)[C@@H](NC(=O)[C@H](CS)NC(=O)[C@@H]1CCCN1C(=O)[C@H](CCCCN)NC(=O)[C@H](CO)NC(=O)[C@H](CC(C)C)NC(=O)[C@H](CCC(N)=O)NC(=O)[C@@H](NC(=O)[C@H](CS)NC(=O)[C@H](Cc1ccccc1)NC(=O)[C@H](C)N)[C@@H](C)CC)[C@@H](C)CC)[C@@H](C)CC)C(C)C)C(C)C)C(=O)N[C@@H](CCCNC(=N)N)C(=O)N[C@@H](CS)C(=O)O [NCR2_V2] (H-AFCIQLSKPCISDKECSIVKNYRARCRKGYCVRRRIRC-OH; N-terminus and C-terminus assumed),6,much smaller lesions; also recorded: effective in reducing the sizes of disease lesions,2000,3,3000,6,–,–,–,–,–,–,–,–,not found to bind to any phospholipids; also recorded: does not bind to any Phospholipids,–,–,–,–,–,binding to phospholipids (overall) ([13]; listed as NCR2 V2): does not bind to any phospholipids
"AFIQLSKPCISDKECSIVKNYRARCRKGYCVRRRIRAPKKVEPAFIQLSKPCISDKECSIVKNYRARCRKGYCVRRRIR (protein, two copies of NCR2 linked in tandem by linker peptide APKKVEP (L1)) AFIQLSKPCISDKECSIVKNYRARCRKGYCVRRRIRAPKKVEPAFIQLSKPCISDKECSIVKNYRARCRKGYCVRRRIR",3,–,–,–,–,–,–,–,–,–,–,–,–,–,–,1000,1.5,Two-fold increase,750,1.5,"antifungal activity compared with the antifungal activity of NCR2 monomer [3]: significant increase; MIC [18]: 1.5 µM; IC50 [19]: 300 nM; MIC [19]: 0.75 µM; IC50 [4, 22]: 2000 nM; MIC [4, 22]: 3 µM"
